Calls of active or inactive are those of the source.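 Rule for the calls: active = compounds giving half or more protection of infected cells from virus-caused growth loss, again on retest; inactive = the rest.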
Test system: CEM cells HIV-1 protection, formazan growth assay
Test: NCI AIDS Antiviral Assay
Conditions: for IC50: measured here: growth of uninfected CEM cells
Outline: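 Screen of anti-HIV-1 activity in human CEM cells using a formazan-based growth measurement at five drug concentrations. Hits with 50% or greater protection were repeated, and confirmation required reproducible complete protection.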

Row | SMILES | outcome | EC50 [µM] | IC50 [µM]
1 | O=C(Cc1nc2ccccc2s1)C(=O)Nc1ccc(Cl)cc1Cl | inactive | – | –
2 | CCn1c(=O)c(N=O)c(N)n(CCCOC)c1=O | – | > 200 | > 200
3 | CCOC(=O)c1sc2c(c1OC(=O)c1ccc(Cl)cc1Cl)c(=O)n(-c1ccccc1)c(=S)n2-c1ccccc1 | – | > 200 | 0.0871
4 | COc1ccc(N=N/C(=N/NC(=O)c2ccccc2)c2ccc(N(CCC#N)CCC#N)cc2C)cc1 | – | > 200 | 11.5
5 | COC1(OC)C(N(C)C)=C(Cl)C(=O)/C1=C/C=O | – | > 251 | 72.4
6 | O=C1CNS(=O)(=O)N1 | – | > 1820 | > 1820
7 | O=C(c1ccccc1)C1N=NN(Cc2ccccc2[N+](=O)[O-])C1C(=O)c1ccccc1 (centres undefined) | – | > 4.79 | > 4.79
8 | C/C=C(\C)C(=O)OC1CC(OC(C)=O)C2(C(=O)OC)COC3C2C1(C)C1C2(C(=O)OC)OCC1(C3O)C1(O)C3CC(C4(O)C=COC4O3)C1(C)O2 (centres undefined) | – | > 200 | 174
9 | Cc1ccc(Nc2nc(C)c(C(/C=C/c3ccc(/C=C/C(=N/NC(=O)C[n+]4ccccc4)c4sc(Nc5ccc(C)cc5[N+](=O)[O-])nc4C)cc3)=N\NC(=O)C[n+]3ccccc3)s2)c([N+](=O)[O-])c1 | – | > 35.5 | > 35.5
10 | C1CSCCSCCCSC2CCCCC2SC1 (centres undefined) | – | > 22.4 | > 22.4
11 | Cc1cc(=O)oc2cc(O)cc(OCc3ccccc3)c12 | – | > 107 | 41.7
12 | CCN(CC)CC1CCCCN1CC(=O)N1c2cc(Cl)ccc2NC(=O)CC1C (centres undefined) | – | 97.7 | > 200
13 | N#Cc1c(NC(=O)C(F)(F)F)sc2c3c(=O)c4ccccc4c(=O)c=3oc3ccccc3c12 | – | > 100 | 17.4
14 | N#Cc1ccc(NC(=O)C(CC(=O)OCc2ccccc2)NC(=O)OCc2ccccc2)cc1 (centres undefined) | – | > 200 | > 200
15 | O=c1oc2c/c(=C\c3ccccn3)c(=O)c3cccc1c3-2 | – | > 200 | 3.72
16 | Cn1c2c(c3cc(Cl)cc(Cl)c31)-c1ncncc1CC2 | – | > 61.7 | > 61.7
17 | N#Cc1c(-c2ccccc2)cc(-c2ccc(Cl)cc2)[nH]c1=S | – | > 200 | 33.9
18 | COc1ccc2nc3ccc(OC)cc3c(S(=O)CCCl)c2c1 (centres undefined) | – | > 200 | 3.63
19 | Cc1ccsc1C(=S)Nc1ccc(Cl)c(/C=N/OC(C)(C)C)c1 | – | 0.141 | 14.1
20 | O=C(O)c1nn(-c2ccccn2)c(O)c1N=Nc1ccc(/C=C/c2ccc(N=Nc3c(C(=O)O)nn(-c4ccccn4)c3O)cc2S(=O)(=O)O)c(S(=O)(=O)O)c1 | – | > 20.4 | > 20.4
21 | CCOC(=O)C1(C/C=C\CBr)CCCCCCC1=O (centres undefined) | – | > 200 | 16.2

Row | SMILES | outcome | EC50 [µM] | IC50 [µM]
22 | COc1ccc(NC(=O)CC(=O)N2N=C(C)C(N=Nc3ccc(S(=O)(=O)c4ccc(N=NC5C(=O)N(C(=O)CC(=O)Nc6ccc(OC)cc6)N=C5C)cc4)cc3)C2=O)cc1 (centres undefined) | – | > 100 | 95.5
23 | COC(=O)/C=C(/C=C1/C(C#N)=C(N)N(c2ccc(Cl)cc2)C1(C)/C(=C/C(=O)OC)C(=O)OC)C(=O)OC (centres undefined) | – | > 200 | 23.4
24 | CCCCC/C=C/C/C=C/CCCCCCCC(=O)OCC(COC1OC(CS(=O)(=O)O)C(O)C(O)C1O)OC(=O)CCCCCCC/C=C/C/C=C/CCCCC (centres undefined) | – | > 27.5 | > 27.5
25 | Nc1nc(=S)c2c(ncn2CC(O)CO)[nH]1 (centres undefined) | – | 363 | 525
26 | CCOC(=O)CC(NCCSS(=O)(=O)O)C(=O)OCC (centres undefined) | – | > 200 | > 200
27 | O=c1c2ccccc2oc2nccnc12 | inactive | – | –
28 | COc1ccc(/C=N/n2cnc3c(sc(=S)n3-c3ccccc3)c2=O)cc1 | – | > 6.92 | > 6.92
29 | CCOC(=O)CC/C(C)=N\n1c(Cc2ccc(Cl)cc2)n[nH]c1=O | inactive | – | –
30 | O=[As](O)(O)c1ccc(OCCO)cc1 | – | > 200 | > 200
31 | O=C(C(=O)C(=O)C(=O)C1C(=O)c2ccccc2C1=O)C(=O)C(=O)C1C(=O)c2ccccc2C1=O | inactive | – | –
32 | O=C(/C=C/c1ccco1)c1cccc(C(=O)/C=C/c2ccco2)n1 | – | > 200 | 9.55
33 | CS(=O)(=O)NC(=O)C[P+](c1ccccc1)(c1ccccc1)c1ccccc1 | – | > 200 | > 200
34 | O=S(Cc1ccccc1)/C(=C/NC(=S)Nc1ccccc1)c1ccccc1 (centres undefined) | – | 182 | > 200
35 | Cc1nc2c(nc1C)C(=O)C1=C(C2=O)C2C=CC1CC2 | – | > 70.8 | 1.62
36 | COc1cc(COC(=O)N(CC(=O)O)c2ccccc2)c([N+](=O)[O-])cc1OC | – | > 646 | 295
37 | CCN(C(=S)N[C@@H](Cc1ccccc1)C(=O)N[C@@H](CC(C)C)C(=O)OC)c1ccccc1 | – | > 200 | 25.7
38 | CCC1N2CCCCC2[C@@H]2c3[nH]c4ccccc4c3CCN12 (some centres undefined) | – | > 447 | 389
39 | Cc1ccc(Nc2nc(NS(=O)(=O)c3cc(C)c(Cl)cc3S)n[nH]2)cc1 | – | > 191 | 178
40 | C[C@]12CC[C@H](O)CC1=CC[C@@H]1C2CC[C@@]2(C)C1CC[C@@H]2c1ncc(-c2ccccc2)s1 (some centres undefined) | – | > 11.5 | > 11.5
41 | COC(=O)c1c[nH]cc1CCc1c[nH]cc1C(=O)OC | inactive | – | –
42 | Cc1ccc2nc3n(c2c1)C(c1c(F)cccc1F)SC3 (centres undefined) | – | 26.9 | 45.7

— PubChem BioAssay AID179 (DTP/NCI, 2004)
